Earlier results as cited in patent US8017153B2, “Dietary supplement composition for blood lipid health” (U.S. Nutraceuticals, LLC, priority 2006, dated 2011).

Settings: Human studies

## [^3H]-octacosanol
  total radioactivity excreted in the feces: 81-91%
  total radioactivity found in urine: 1.2%
